Data reported in patent US9896435B2, “N-pyrrolidinyl,N′-pyrazolyl-urea, thiourea, guanidine and cyanoguanidine compounds as TrkA kinase inhibitors” (Array BioPharma Inc., priority 2012, dated 2018).

How the values were obtained:
[1] = target: His-tagged recombinant human TrkA (Homo sapiens (Human), UniProt P04629); assay: TrkA LanthaScreen Eu Kinase Binding Assay; settings: averaged IC50; LanthaScreen binding assay of Example A; read-out: TrkA Enzyme IC50
Experimental: TrkA binding activity was determined in a TrkA LanthaScreen™ Eu Kinase Binding Assay. 5 nM His-tagged recombinant human TrkA (6HIS tagged cytoplasmic domain from Invitrogen, Catalog No. PV3144) was incubated with 4 nM Alexa-Fluor® Tracer 236 (Invitrogen Cat. No. PV5592), 2 nM biotinylated anti-His (Invitrogen Cat. No. PV6090), and 2 nM europium-labeled Streptavidin (Invitrogen Cat. No. PV5899), in buffer (25 mM MOPS, pH 7.5, 5 mM MgCl2, 0.005% Triton X-100). Three fold serial dilutions of compounds of the invention in DMSO were added to a final percentage of 2% DMSO. After 60-minute incubation at 22° C., the reaction was measured using the EnVision mutlimode plate reader (PerkinElmer) via TR-FRET dual wavelength detection at […]. The percent of control was calculated using a ratiometric emission factor. The IC50 values were determined by fitting a four parameter model to the percent of control data.
Table A provides averaged IC50 values for compounds of the invention when tested in the assay of Example A, where A represents an averaged IC50 value<100 nM.

ALK = ALK (Homo sapiens (Human), UniProt Q9UM73); assay: KinaseProfiler off-target kinase profiling; assay type: biochemical; settings: 10 μM, ATP near Km
Method in brief: (§1)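 Single-point profiling, 10 μM, duplicates, ATP ~Km; output POC (mean of 2).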

Bmx = Bmx (Homo sapiens (Human), UniProt P51813); assay: KinaseProfiler off-target kinase profiling; assay type: biochemical; settings: 10 μM, ATP near Km
Method in brief: as §1

BrSK2 = BrSK2 (Homo sapiens (Human), UniProt Q8IWQ3); assay: KinaseProfiler off-target kinase profiling; assay type: biochemical; settings: 10 μM, ATP near Km
Chain of BrSK2 (Q8IWQ3 whole entry): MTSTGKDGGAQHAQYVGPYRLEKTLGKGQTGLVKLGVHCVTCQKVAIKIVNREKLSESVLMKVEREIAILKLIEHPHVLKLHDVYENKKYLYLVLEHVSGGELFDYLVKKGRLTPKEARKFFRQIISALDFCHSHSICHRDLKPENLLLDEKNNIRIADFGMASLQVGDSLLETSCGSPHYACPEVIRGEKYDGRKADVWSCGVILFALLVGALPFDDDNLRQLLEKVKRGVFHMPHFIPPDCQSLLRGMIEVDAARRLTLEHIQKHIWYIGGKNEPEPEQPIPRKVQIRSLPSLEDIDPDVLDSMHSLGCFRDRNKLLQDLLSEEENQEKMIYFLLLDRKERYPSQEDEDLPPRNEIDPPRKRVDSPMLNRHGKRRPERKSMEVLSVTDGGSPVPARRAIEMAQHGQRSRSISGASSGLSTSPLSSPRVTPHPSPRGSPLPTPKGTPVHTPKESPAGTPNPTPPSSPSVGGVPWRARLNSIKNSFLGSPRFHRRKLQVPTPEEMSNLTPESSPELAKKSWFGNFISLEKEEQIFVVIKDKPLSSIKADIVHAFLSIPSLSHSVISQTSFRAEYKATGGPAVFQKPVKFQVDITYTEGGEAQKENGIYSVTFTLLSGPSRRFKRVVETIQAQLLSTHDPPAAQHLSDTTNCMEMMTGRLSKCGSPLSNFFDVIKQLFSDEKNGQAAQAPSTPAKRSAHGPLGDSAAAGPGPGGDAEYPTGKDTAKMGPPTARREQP
Method in brief: as §1

CK1delta = CK1delta (Homo sapiens (Human), UniProt P48730); assay: KinaseProfiler off-target kinase profiling; assay type: biochemical; settings: 10 μM, ATP near Km
Method in brief: as §1

CLK2 = CLK2 (Homo sapiens (Human), UniProt P49760); assay: KinaseProfiler off-target kinase profiling; assay type: biochemical; settings: 10 μM, ATP near Km
Method in brief: as §1

DDR2 = DDR2 (Homo sapiens (Human), UniProt Q16832); assay: KinaseProfiler off-target kinase profiling; assay type: biochemical; settings: 10 μM, ATP near Km
Chain of DDR2 (Q16832 22-855): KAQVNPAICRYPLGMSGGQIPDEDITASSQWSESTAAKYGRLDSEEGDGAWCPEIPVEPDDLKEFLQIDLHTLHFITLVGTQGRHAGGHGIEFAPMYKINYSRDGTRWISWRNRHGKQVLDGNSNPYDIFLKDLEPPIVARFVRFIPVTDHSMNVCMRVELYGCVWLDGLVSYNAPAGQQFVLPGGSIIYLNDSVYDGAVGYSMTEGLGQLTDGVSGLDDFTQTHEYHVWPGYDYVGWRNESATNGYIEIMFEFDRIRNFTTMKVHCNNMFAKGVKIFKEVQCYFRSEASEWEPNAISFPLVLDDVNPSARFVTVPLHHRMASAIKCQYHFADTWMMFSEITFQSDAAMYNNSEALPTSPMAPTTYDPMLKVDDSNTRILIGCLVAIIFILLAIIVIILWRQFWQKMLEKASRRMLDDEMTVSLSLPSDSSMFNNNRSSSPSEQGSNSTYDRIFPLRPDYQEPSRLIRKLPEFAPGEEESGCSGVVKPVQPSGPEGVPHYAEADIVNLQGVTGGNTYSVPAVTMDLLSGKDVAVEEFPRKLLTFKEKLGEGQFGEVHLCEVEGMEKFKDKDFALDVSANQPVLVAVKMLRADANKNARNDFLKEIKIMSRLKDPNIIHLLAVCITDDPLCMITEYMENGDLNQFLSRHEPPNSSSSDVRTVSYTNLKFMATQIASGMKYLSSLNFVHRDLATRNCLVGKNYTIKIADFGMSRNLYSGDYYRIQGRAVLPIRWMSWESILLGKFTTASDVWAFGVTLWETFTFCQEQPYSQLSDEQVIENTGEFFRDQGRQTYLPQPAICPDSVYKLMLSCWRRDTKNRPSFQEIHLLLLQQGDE
Method in brief: as §1

Flt1 = Flt1 (Homo sapiens (Human), UniProt P17948); assay: KinaseProfiler off-target kinase profiling; assay type: biochemical; settings: 10 μM, ATP near Km
Method in brief: as §1

Fyn = Fyn (Homo sapiens (Human), UniProt P06241); assay: KinaseProfiler off-target kinase profiling; assay type: biochemical; settings: 10 μM, ATP near Km
Chain of Fyn (P06241 whole entry): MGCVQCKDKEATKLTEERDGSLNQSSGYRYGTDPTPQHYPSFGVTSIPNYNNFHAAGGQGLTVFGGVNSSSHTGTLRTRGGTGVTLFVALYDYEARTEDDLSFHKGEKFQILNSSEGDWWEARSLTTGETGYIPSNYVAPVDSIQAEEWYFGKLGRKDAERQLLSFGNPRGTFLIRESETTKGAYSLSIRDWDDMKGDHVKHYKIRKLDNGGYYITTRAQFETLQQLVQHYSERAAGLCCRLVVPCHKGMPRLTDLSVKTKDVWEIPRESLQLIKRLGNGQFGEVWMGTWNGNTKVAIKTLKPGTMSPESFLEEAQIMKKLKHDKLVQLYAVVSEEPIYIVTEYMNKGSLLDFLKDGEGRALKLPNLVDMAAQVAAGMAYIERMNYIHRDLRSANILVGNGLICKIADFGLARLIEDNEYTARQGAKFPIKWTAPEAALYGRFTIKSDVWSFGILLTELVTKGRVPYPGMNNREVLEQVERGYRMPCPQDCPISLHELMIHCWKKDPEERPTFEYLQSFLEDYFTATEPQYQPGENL
Method in brief: as §1

HIPK1 = HIPK1 (Homo sapiens (Human), UniProt Q86Z02); assay: KinaseProfiler off-target kinase profiling; assay type: biochemical; settings: 10 μM, ATP near Km
Method in brief: as §1

HIPK3 = HIPK3 (Homo sapiens (Human), UniProt Q9H422); assay: KinaseProfiler off-target kinase profiling; assay type: biochemical; settings: 10 μM, ATP near Km
Method in brief: as §1

IRAK1 = IRAK1 (Homo sapiens (Human), UniProt P51617); assay: KinaseProfiler off-target kinase profiling; assay type: biochemical; settings: 10 μM, ATP near Km
Method in brief: as §1

IRR = IRR (Homo sapiens (Human), UniProt P14616); assay: KinaseProfiler off-target kinase profiling; assay type: biochemical; settings: 10 μM, ATP near Km
Method in brief: as §1

ITK = ITK (Homo sapiens (Human), UniProt Q08881); assay: KinaseProfiler off-target kinase profiling; assay type: biochemical; settings: 10 μM, ATP near Km
Method in brief: as §1

JAK3 = JAK3 (Homo sapiens (Human), UniProt P52333); assay: KinaseProfiler off-target kinase profiling; assay type: biochemical; settings: 10 μM, ATP near Km
Method in brief: as §1

MAP4K2 = MAP4K2 (Homo sapiens (Human), UniProt Q12851); assay: KinaseProfiler off-target kinase profiling; assay type: biochemical; settings: 10 μM, ATP near Km
Method in brief: as §1

MINK = MINK (Homo sapiens (Human), UniProt Q8N4C8); assay: KinaseProfiler off-target kinase profiling; assay type: biochemical; settings: 10 μM, ATP near Km
Method in brief: as §1

MLK1 = MLK1 (Homo sapiens (Human), UniProt P80192); assay: KinaseProfiler off-target kinase profiling; assay type: biochemical; settings: 10 μM, ATP near Km
Chain of MLK1 (P80192 whole entry): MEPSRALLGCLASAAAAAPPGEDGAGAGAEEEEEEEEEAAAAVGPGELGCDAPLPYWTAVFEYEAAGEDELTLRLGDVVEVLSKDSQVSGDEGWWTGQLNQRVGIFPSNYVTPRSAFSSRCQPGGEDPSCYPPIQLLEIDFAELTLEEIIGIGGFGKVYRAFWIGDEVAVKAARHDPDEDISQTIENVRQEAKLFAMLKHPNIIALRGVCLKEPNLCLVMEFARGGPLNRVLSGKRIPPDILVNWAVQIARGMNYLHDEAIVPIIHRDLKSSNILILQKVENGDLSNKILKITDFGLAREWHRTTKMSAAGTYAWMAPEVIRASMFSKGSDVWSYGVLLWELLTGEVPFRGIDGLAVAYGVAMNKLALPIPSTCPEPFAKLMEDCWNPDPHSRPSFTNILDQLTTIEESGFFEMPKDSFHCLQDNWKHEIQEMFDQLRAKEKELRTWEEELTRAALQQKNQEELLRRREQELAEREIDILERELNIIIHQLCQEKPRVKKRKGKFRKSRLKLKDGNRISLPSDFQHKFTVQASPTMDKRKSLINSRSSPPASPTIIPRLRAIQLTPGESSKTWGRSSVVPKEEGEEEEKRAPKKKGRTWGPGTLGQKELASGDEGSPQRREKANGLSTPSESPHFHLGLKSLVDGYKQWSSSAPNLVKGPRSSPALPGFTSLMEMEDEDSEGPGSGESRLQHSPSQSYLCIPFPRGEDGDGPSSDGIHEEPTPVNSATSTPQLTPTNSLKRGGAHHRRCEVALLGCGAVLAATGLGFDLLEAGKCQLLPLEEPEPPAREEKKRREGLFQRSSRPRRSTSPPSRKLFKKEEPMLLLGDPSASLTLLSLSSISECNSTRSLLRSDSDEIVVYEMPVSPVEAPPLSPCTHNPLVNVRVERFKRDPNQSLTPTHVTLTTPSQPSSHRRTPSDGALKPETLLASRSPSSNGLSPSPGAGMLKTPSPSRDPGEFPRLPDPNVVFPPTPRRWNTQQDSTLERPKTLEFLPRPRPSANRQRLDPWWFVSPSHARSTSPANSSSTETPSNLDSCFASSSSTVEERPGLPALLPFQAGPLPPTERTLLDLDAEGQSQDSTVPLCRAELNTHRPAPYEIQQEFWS
Method in brief: as §1

NEK3 = NEK3 (Homo sapiens (Human), UniProt P51956); assay: KinaseProfiler off-target kinase profiling; assay type: biochemical; settings: 10 μM, ATP near Km
Method in brief: as §1

PAK2 = PAK2 (Homo sapiens (Human), UniProt Q13177); assay: KinaseProfiler off-target kinase profiling; assay type: biochemical; settings: 10 μM, ATP near Km
Method in brief: as §1

PDGFRbeta = PDGFRbeta (Homo sapiens (Human), UniProt P09619); assay: KinaseProfiler off-target kinase profiling; assay type: biochemical; settings: 10 μM, ATP near Km
Method in brief: as §1

PKAC-alpha = PKAC-alpha (Homo sapiens (Human), UniProt P17612); assay: KinaseProfiler off-target kinase profiling; assay type: biochemical; settings: 10 μM, ATP near Km
Method in brief: as §1

PKCtheta = PKCtheta (Homo sapiens (Human), UniProt Q04759); assay: KinaseProfiler off-target kinase profiling; assay type: biochemical; settings: 10 μM, ATP near Km
Method in brief: as §1

PRKG1beta = PRKG1beta (Homo sapiens (Human), UniProt Q13976); assay: KinaseProfiler off-target kinase profiling; assay type: biochemical; settings: 10 μM, ATP near Km
Chain of PRKG1beta (Q13976 other isoform, or with tags, fused parts or gaps): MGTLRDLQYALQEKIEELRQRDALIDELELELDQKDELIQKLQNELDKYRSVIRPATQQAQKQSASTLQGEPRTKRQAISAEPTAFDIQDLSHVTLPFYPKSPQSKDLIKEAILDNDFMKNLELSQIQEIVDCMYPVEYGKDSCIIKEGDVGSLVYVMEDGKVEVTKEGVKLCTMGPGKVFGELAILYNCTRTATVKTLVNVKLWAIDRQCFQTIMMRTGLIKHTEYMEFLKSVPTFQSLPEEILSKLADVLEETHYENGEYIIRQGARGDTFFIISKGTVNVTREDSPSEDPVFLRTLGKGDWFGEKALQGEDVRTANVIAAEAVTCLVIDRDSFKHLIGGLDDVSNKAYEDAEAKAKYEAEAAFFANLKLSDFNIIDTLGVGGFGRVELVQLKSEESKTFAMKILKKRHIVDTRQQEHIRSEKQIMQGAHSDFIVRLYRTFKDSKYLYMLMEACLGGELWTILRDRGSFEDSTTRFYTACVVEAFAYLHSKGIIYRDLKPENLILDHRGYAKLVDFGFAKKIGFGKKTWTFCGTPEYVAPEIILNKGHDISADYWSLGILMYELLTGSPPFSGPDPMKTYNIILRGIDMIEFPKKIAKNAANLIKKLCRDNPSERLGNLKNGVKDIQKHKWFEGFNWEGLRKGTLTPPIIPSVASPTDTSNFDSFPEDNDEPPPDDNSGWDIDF
Method in brief: as §1

Ron = Ron (Homo sapiens (Human), UniProt Q04912); assay: KinaseProfiler off-target kinase profiling; assay type: biochemical; settings: 10 μM, ATP near Km
Method in brief: as §1

STK33 = STK33 (Homo sapiens (Human), UniProt Q9BYT3); assay: KinaseProfiler off-target kinase profiling; assay type: biochemical; settings: 10 μM, ATP near Km
Method in brief: as §1

TNK2 = TNK2 (Homo sapiens (Human), UniProt Q07912); assay: KinaseProfiler off-target kinase profiling; assay type: biochemical; settings: 10 μM, ATP near Km
Method in brief: as §1

VRK2 = VRK2 (Homo sapiens (Human), UniProt Q86Y07); assay: KinaseProfiler off-target kinase profiling; assay type: biochemical; settings: 10 μM, ATP near Km
Chain of VRK2 (Q86Y07 whole entry): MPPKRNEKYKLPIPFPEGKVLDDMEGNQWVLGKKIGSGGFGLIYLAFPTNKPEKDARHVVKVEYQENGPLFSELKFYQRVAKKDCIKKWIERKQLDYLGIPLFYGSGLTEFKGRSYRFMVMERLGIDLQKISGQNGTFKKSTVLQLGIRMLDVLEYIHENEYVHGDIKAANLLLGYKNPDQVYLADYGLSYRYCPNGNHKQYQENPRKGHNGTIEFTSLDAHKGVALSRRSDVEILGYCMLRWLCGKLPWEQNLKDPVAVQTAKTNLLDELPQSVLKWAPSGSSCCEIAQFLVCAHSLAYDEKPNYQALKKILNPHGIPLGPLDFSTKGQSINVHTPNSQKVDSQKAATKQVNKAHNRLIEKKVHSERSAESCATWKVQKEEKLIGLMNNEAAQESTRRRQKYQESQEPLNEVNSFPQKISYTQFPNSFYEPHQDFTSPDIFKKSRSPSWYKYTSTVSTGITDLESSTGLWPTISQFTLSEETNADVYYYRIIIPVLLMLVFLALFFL
Method in brief: as §1

c-RAF = c-RAF (Homo sapiens (Human), UniProt P04049, Y340D/Y341D); assay: KinaseProfiler off-target kinase profiling; assay type: biochemical; settings: 10 μM, ATP near Km
Method in brief: as §1

[2] = system: off-target kinases in the full kinase panel; assay: KinaseProfiler full kinase panel, overall result; assay type: biochemical; settings: for selectivity for inhibiting TrkA versus other kinases in the panel: 10 μM, panel of about 230 kinases; for activity against off-target kinases: concentration of 10 μM
Experimental: Two representative compounds (Example 2, 14) of the invention were tested for off-target kinase activity at a concentration of 10 μM by Millipore, Inc. in their KinaseProfiler™ service against all the kinases available in their full kinase panel. These compounds were run in duplicate at a concentration of ATP near the Km for each individual kinase according to Millipore's specifications. The results are shown in Table B. Data are reported as percent of control (POC) and are the average of the two replicates.
Such a drug profile would represent a safer approach to treating pain, inflammation, cancer and certain skin diseases than has been previously reported.

Chain of His-tagged recombinant human TrkA (P04629 440-796): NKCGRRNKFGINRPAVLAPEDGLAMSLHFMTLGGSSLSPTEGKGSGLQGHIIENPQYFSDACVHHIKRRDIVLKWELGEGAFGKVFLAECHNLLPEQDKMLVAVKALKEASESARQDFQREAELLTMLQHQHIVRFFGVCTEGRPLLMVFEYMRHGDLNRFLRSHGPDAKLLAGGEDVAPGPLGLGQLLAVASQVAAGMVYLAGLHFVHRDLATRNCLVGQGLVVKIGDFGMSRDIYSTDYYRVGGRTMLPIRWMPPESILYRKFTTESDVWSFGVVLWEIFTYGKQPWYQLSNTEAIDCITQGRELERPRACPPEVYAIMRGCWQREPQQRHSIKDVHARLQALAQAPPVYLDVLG

Compound	IC50 [1]	Avg POC (ALK)	Avg POC (Bmx)	Avg POC (BrSK2)	Avg POC (CK1delta)	Avg POC (CLK2)	Avg POC (DDR2)	Avg POC (Flt1)	Avg POC (Fyn)	Avg POC (HIPK1)	Avg POC (HIPK3)	Avg POC (IRAK1)	Avg POC (IRR)	Avg POC (ITK)	Avg POC (JAK3)	Avg POC (MAP4K2)	Avg POC (MINK)	Avg POC (MLK1)	Avg POC (NEK3)	Avg POC (PAK2)	other results
COCCN1C[C@@H](NC(=O)Nc2c(C)c(-c3cnc(C)nc3)nn2-c2ccccc2)[C@H](c2cc(F)cc(F)c2)C1 [Example 14, 1-((3S,4R)-4-(3,5-difluorophenyl)-1-(2-methoxyethyl)pyrrolidin-3-yl)-3-(4-methyl-3-(2-methylpyrimidin-5-yl)-1-phenyl-1H-pyrazol-5-yl)urea]	< 0.1 µM	102.5 POC	105.5 POC	99 POC	108.5 POC	111.5 POC	96 POC	81 POC	91.5 POC	97.5 POC	89 POC	108.5 POC	96 POC	101 POC	101 POC	99.5 POC	89.5 POC	102 POC	101 POC	92.5 POC	Avg POC (PDGFRbeta): 120 POC; Avg POC (PKAC-alpha): 109 POC; Avg POC (PKCtheta): 98 POC; Avg POC (PRKG1beta): 101.5 POC; Avg POC (Ron): 104 POC; Avg POC (STK33): 103.5 POC; Avg POC (TNK2): 97.5 POC; Avg POC (VRK2): 109.5 POC; Avg POC (c-RAF): 89 POC; selectivity for inhibiting TrkA versus other kinases in the panel [2]: remarkable and unexpected selectivity; activity against off-target kinases [2]: largely inactive
COCCN1C[C@@H](NC(=O)Nc2c(C)c(-c3ccnc(C)c3)nn2-c2ccccc2)[C@H](c2ccc(F)c(F)c2)C1 [Example 2, 1-((3S,4R)-4-(3,4-difluorophenyl)-1-(2-methoxyethyl)pyrrolidin-3-yl)-3-(4-methyl-3-(2-methylpyridin-4-yl)-1-phenyl-1H-pyrazol-5-yl)urea]	< 0.1 µM	111 POC	115.5 POC	93 POC	108 POC	125 POC	100.5 POC	86 POC	97 POC	96.5 POC	99.5 POC	112.5 POC	105 POC	111 POC	103.5 POC	105.5 POC	98 POC	103.5 POC	97 POC	95.5 POC	Avg POC (PDGFRbeta): 108.5 POC; Avg POC (PKAC-alpha): 94.5 POC; Avg POC (PKCtheta): 98.5 POC; Avg POC (PRKG1beta): 97.5 POC; Avg POC (Ron): 122.5 POC; Avg POC (STK33): 94 POC; Avg POC (TNK2): 109.5 POC; Avg POC (VRK2): 101.5 POC; Avg POC (c-RAF): 103.5 POC; selectivity for inhibiting TrkA versus other kinases in the panel [2]: remarkable and unexpected selectivity; activity against off-target kinases [2]: largely inactive
